Results published in PMC3639963, “A New Class of Small Molecule Inhibitor of BMP Signaling” (PLoS ONE, 2013).

Columns and labels:
Experiment in all cases: Nanosyn kinase profiling
Assay type in all cases: biochemical
Details in all cases: read-out: Percentage inhibition; for inhibition at 0.1 µM: 0.1 µM inhibitor; for inhibition at 1 µM: 1 µM inhibitor
p38β = target: T1, p38β (Homo sapiens, UniProt Q15759)
T1 construct: purchased Nanosyn (enzymatic panel); SGC in-house recombinant human kinases (DSF panel); Invitrogen (ALK1-6)
T1 sequence (Q15759 whole entry): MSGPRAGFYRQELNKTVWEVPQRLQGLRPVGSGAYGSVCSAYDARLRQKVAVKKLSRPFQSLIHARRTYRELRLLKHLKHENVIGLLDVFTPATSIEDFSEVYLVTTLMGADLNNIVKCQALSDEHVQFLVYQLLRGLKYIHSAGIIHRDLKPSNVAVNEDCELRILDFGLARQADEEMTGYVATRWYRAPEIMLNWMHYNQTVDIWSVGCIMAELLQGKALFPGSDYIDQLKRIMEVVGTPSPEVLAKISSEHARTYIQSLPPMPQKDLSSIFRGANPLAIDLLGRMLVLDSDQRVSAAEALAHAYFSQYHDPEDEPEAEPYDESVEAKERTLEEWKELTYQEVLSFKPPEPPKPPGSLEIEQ
How it was run: (§1)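 Percent inhibition of each kinase was measured with the inhibitor at 0.1 µM and at 1 µM, as part of a 200-kinase human selectivity panel.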

FYN = target: T2, FYN (Homo sapiens, UniProt P06241)
T2 construct: purchased Nanosyn (enzymatic panel); SGC in-house recombinant human kinases (DSF panel); Invitrogen (ALK1-6)
T2 sequence (P06241 whole entry): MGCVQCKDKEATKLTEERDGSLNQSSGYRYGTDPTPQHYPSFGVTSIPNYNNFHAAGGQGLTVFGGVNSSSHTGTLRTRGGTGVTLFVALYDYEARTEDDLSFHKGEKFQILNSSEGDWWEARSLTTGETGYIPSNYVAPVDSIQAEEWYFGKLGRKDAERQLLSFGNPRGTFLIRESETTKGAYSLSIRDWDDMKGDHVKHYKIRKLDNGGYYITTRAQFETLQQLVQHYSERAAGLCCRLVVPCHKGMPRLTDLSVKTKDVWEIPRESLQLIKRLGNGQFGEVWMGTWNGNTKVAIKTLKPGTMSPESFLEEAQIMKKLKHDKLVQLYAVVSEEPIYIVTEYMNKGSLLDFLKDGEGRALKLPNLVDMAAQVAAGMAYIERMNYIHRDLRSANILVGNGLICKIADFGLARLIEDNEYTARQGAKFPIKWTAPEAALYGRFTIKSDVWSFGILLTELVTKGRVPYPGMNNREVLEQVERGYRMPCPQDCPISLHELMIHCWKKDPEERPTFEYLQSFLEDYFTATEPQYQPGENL
How it was run: as §1

ZAP70 = target: T3, ZAP70 (Homo sapiens, UniProt P43403)
T3 construct: purchased Nanosyn (enzymatic panel); SGC in-house recombinant human kinases (DSF panel); Invitrogen (ALK1-6)
T3 sequence (P43403 1-619): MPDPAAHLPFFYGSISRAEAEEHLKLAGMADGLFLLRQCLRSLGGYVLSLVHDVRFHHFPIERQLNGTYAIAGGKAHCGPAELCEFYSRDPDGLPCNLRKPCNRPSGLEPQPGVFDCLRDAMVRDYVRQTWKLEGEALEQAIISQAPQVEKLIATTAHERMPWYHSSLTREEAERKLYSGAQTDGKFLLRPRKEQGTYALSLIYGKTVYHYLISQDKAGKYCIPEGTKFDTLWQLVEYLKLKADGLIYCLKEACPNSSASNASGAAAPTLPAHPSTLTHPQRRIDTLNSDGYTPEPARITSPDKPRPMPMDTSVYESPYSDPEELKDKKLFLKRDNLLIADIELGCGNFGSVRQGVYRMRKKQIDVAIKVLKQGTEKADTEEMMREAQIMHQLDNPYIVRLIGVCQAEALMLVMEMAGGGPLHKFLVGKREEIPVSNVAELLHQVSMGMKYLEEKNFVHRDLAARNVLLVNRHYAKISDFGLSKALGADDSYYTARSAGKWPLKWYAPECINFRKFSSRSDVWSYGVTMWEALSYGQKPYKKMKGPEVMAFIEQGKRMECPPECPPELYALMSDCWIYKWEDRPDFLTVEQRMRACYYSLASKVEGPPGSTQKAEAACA
How it was run: as §1

CAMK4 = target: T4, CAMK4 (Homo sapiens, UniProt Q16566)
T4 construct: purchased Nanosyn (enzymatic panel); SGC in-house recombinant human kinases (DSF panel); Invitrogen (ALK1-6)
T4 sequence (Q16566 1-473): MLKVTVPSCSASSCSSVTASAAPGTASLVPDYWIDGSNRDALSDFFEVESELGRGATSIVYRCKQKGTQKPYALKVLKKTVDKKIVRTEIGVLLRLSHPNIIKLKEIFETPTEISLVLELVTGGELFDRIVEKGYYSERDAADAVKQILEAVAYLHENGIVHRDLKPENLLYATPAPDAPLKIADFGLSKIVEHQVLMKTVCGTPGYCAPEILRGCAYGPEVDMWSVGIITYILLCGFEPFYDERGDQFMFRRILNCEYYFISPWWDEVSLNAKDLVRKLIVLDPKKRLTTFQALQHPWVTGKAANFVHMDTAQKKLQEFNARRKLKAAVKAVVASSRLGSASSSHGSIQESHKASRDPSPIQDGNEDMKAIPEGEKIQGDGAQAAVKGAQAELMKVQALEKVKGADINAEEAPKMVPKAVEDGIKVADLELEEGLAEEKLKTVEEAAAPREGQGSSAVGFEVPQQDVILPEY
How it was run: as §1

NEK6 = target: T5, NEK6 (Homo sapiens, UniProt Q9HC98)
T5 construct: purchased Nanosyn (enzymatic panel); SGC in-house recombinant human kinases (DSF panel); Invitrogen (ALK1-6)
T5 sequence (Q9HC98 whole entry): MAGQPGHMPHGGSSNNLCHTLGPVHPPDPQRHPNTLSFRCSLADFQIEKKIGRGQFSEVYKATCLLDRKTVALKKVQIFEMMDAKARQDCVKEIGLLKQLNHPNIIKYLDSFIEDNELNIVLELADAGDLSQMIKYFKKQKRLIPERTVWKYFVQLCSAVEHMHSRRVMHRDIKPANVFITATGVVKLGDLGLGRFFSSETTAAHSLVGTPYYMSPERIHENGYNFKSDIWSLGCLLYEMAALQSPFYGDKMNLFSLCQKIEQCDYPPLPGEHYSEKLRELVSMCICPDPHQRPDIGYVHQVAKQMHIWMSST
How it was run: as §1

EPHA4 = target: T6, EPHA4 (Homo sapiens, UniProt P54764)
T6 construct: purchased Nanosyn (enzymatic panel); SGC in-house recombinant human kinases (DSF panel); Invitrogen (ALK1-6)
T6 sequence (P54764 20-986): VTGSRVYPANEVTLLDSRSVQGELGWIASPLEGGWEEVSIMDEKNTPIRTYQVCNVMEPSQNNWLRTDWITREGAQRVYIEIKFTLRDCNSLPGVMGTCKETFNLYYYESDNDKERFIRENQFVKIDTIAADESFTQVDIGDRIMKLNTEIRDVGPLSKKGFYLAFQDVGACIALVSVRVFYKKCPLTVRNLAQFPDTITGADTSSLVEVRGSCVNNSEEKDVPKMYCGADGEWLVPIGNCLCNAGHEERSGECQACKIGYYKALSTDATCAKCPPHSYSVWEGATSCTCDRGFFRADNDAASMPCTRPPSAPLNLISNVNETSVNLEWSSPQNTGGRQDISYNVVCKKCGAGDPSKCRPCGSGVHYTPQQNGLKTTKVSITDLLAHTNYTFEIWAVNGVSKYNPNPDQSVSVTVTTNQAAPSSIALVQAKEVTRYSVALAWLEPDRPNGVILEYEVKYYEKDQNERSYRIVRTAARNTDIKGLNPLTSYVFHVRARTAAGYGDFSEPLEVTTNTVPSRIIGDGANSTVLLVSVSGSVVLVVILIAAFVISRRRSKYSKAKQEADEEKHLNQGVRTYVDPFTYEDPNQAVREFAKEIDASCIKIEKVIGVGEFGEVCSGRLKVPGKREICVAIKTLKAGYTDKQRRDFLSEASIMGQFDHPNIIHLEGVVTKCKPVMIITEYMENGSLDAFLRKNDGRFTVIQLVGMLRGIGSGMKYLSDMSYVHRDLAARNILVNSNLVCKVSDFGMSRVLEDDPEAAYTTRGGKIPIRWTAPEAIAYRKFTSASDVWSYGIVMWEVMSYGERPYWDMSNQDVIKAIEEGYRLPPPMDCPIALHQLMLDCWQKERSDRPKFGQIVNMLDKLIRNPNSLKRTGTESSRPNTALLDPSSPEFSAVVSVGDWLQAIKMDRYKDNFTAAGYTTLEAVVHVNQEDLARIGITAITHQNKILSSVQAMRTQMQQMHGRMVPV
How it was run: as §1

RON = target: T7, RON (Homo sapiens, UniProt Q04912)
T7 construct: purchased Nanosyn (enzymatic panel); SGC in-house recombinant human kinases (DSF panel); Invitrogen (ALK1-6)
T7 sequence (Q04912 25-1400): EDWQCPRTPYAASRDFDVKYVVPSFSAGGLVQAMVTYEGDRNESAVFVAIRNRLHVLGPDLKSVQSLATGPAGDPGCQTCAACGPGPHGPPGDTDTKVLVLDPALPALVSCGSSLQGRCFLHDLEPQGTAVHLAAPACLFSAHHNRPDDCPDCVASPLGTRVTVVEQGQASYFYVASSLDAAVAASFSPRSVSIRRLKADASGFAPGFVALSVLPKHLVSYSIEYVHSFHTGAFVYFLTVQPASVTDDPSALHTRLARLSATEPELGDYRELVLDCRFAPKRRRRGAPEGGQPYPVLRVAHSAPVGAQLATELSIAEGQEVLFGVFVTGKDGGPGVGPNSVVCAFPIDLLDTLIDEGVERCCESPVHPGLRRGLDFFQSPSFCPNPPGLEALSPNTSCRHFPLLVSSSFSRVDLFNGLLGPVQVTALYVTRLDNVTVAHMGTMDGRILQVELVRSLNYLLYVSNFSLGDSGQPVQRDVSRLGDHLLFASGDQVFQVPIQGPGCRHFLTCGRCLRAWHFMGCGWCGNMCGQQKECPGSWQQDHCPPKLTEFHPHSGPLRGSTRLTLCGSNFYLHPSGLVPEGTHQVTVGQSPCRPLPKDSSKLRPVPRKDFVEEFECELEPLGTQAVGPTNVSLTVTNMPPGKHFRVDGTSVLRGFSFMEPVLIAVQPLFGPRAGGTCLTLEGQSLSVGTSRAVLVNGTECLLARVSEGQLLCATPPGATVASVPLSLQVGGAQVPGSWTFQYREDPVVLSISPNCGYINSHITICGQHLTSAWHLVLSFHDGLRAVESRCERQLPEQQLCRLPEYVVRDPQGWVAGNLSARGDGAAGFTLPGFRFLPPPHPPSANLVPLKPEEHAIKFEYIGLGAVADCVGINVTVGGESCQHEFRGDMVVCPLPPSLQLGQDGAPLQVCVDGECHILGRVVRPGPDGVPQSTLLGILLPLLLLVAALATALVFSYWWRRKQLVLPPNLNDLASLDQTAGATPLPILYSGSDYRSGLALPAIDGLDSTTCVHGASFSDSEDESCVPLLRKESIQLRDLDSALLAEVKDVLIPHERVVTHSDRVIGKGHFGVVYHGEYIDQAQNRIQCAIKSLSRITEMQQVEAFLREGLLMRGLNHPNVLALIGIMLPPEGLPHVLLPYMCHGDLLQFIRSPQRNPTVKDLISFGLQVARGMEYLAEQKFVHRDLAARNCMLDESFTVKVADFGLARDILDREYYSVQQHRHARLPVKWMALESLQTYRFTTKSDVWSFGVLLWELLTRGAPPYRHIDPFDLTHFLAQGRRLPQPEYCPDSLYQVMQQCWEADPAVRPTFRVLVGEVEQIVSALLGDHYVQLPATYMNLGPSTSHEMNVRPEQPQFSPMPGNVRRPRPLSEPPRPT
How it was run: as §1

SRMS = target: T8, SRMS (Homo sapiens, UniProt Q9H3Y6)
T8 construct: purchased Nanosyn (enzymatic panel); SGC in-house recombinant human kinases (DSF panel); Invitrogen (ALK1-6)
T8 sequence (Q9H3Y6 whole entry): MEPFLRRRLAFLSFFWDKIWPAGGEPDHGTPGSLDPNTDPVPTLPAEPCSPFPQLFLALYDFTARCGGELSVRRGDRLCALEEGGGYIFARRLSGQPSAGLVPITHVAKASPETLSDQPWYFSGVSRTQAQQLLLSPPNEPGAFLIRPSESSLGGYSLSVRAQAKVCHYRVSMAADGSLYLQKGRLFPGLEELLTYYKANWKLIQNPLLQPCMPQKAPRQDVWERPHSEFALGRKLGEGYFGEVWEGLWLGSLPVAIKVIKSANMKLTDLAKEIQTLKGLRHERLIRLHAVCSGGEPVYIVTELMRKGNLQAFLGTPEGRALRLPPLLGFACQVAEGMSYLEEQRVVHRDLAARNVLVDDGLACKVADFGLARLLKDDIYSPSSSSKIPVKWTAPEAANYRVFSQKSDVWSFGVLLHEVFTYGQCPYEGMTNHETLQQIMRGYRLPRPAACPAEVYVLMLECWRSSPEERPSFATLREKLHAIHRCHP
How it was run: as §1

PDGFRα = target: T9, PDGFRα (Homo sapiens, UniProt P16234)
T9 construct: purchased Nanosyn (enzymatic panel); SGC in-house recombinant human kinases (DSF panel); Invitrogen (ALK1-6)
How it was run: as §1

FER = target: T10, FER (Homo sapiens, UniProt P16591)
T10 construct: purchased Nanosyn (enzymatic panel); SGC in-house recombinant human kinases (DSF panel); Invitrogen (ALK1-6)
T10 sequence (P16591 whole entry): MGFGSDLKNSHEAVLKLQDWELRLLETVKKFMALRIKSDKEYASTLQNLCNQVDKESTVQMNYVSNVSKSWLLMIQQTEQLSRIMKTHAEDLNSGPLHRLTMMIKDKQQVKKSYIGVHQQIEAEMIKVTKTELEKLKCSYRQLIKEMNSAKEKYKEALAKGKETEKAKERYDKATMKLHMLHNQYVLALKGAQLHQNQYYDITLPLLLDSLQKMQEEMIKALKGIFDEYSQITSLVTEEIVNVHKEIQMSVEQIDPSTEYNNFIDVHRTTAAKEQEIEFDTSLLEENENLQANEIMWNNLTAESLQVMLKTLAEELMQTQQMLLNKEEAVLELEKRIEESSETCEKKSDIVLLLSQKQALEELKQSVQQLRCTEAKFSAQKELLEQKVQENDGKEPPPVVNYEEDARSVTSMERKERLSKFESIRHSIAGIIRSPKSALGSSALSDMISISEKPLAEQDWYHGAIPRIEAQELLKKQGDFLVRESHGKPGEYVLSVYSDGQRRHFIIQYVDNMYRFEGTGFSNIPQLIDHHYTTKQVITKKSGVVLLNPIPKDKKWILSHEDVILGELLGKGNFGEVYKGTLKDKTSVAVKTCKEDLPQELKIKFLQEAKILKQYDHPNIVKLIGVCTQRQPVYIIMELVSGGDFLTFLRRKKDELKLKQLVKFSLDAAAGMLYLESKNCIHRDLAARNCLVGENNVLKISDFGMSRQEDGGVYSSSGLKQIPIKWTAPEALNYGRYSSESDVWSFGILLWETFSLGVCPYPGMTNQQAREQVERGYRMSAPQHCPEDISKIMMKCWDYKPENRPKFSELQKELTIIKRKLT
How it was run: as §1

CHEK1 = target: T11, CHEK1 (Homo sapiens, UniProt O14757)
T11 construct: purchased Nanosyn (enzymatic panel); SGC in-house recombinant human kinases (DSF panel); Invitrogen (ALK1-6)
T11 sequence (O14757 1-476): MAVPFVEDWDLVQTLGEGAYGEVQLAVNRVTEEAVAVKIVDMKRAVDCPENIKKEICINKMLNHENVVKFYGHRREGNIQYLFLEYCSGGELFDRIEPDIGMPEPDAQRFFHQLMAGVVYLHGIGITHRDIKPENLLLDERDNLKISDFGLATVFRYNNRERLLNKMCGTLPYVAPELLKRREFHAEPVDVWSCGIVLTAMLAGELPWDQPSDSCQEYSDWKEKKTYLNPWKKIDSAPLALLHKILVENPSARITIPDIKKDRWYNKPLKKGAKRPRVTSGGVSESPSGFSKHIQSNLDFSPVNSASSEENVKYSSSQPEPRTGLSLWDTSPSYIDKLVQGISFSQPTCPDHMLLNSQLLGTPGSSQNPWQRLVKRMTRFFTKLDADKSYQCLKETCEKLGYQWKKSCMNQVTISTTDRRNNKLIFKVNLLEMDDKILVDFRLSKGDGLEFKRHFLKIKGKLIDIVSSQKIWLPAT
How it was run: as §1

PHKγ2 = target: T12, PHKγ2 (Homo sapiens, UniProt P15735)
T12 construct: purchased Nanosyn (enzymatic panel); SGC in-house recombinant human kinases (DSF panel); Invitrogen (ALK1-6)
T12 sequence (P15735 1-406): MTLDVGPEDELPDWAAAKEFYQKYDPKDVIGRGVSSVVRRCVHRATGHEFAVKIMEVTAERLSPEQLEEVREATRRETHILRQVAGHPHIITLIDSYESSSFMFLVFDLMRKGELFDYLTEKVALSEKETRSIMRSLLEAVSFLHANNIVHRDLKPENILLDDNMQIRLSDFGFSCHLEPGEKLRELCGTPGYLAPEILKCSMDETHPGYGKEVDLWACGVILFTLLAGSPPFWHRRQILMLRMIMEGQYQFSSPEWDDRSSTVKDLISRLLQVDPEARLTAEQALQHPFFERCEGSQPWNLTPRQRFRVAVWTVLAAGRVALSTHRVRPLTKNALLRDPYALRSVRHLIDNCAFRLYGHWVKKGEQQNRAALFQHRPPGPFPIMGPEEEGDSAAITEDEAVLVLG
How it was run: as §1

## COc1cc(-c2cc(-c3cccc(O)c3)cnc2N)cc(OC)c1OC [K02288, 3-[6-amino-5-(3,4,5-trimethoxy-phenyl)-pyridin-3-yl]-phenol]
p38β
  inhibition at 0.1 µM: 0%
  inhibition at 1 µM: 9.7%
FYN
  inhibition at 0.1 µM: 10%
  inhibition at 1 µM: 43%
ZAP70
  inhibition at 0.1 µM: -2%
  inhibition at 1 µM: 1%
CAMK4
  inhibition at 0.1 µM: -1%
  inhibition at 1 µM: -1%
NEK6
  inhibition at 0.1 µM: -2%
  inhibition at 1 µM: -1%
EPHA4
  inhibition at 0.1 µM: -2%
  inhibition at 1 µM: 17%
RON
  inhibition at 0.1 µM: 3%
  inhibition at 1 µM: -1%
SRMS
  inhibition at 0.1 µM: 0.8%
  inhibition at 1 µM: 17%
PDGFRα
  inhibition at 0.1 µM: 5.3%
  inhibition at 1 µM: 37%
FER
  inhibition at 0.1 µM: 0.8%
  inhibition at 1 µM: 7.5%
CHEK1
  inhibition at 0.1 µM: -1%
  inhibition at 1 µM: -2%
PHKγ2
  inhibition at 0.1 µM: -3%
  inhibition at 1 µM: -3%

## c1ccc2c(-c3cnn4cc(-c5ccc(N6CCNCC6)cc5)cnc34)ccnc2c1 [LDN-193189]
p38β
  inhibition at 0.1 µM: 0.4%
  inhibition at 1 µM: 1.5%
FYN
  inhibition at 0.1 µM: 18%
  inhibition at 1 µM: 60%
ZAP70
  inhibition at 0.1 µM: 4.7%
  inhibition at 1 µM: 1%
CAMK4
  inhibition at 0.1 µM: 0.1%
  inhibition at 1 µM: 0%
NEK6
  inhibition at 0.1 µM: 2.3%
  inhibition at 1 µM: -1%
EPHA4
  inhibition at 0.1 µM: 7.1%
  inhibition at 1 µM: 10%
RON
  inhibition at 0.1 µM: -2%
  inhibition at 1 µM: 12%
SRMS
  inhibition at 0.1 µM: -1%
  inhibition at 1 µM: 8.9%
PDGFRα
  inhibition at 0.1 µM: 18%
  inhibition at 1 µM: 56%
FER
  inhibition at 0.1 µM: 2.8%
  inhibition at 1 µM: 3.7%
CHEK1
  inhibition at 0.1 µM: 2.9%
  inhibition at 1 µM: 0.3%
PHKγ2
  inhibition at 0.1 µM: 3.5%
  inhibition at 1 µM: 4.9%
